Activity calls are given as the source filed them. No cut-off for these calls is given here. Bounds are passed on as bounds.

The subject of data set [1] is MDA-MB-231. Nature of the data set: Antiproliferative activity against human MDA-MB-231 cells assessed as reduction in cell viability incubated for 120 hrs using ultra-low adherent 3D-spheroids by CellTiter-glo assay. The data set is classed as functional, cell-based. The conditions noted are these: MDA-MB-231, 120 h.
The target in data set [2] is Focal adhesion kinase 1 (Homo sapiens, UniProt Q05397). In words: Inhibition of Focal adhesion kinase (unknown origin) using Tyr 07 peptide substrate incubated for 60 mins at room temperature followed by 60 mins development reaction measured fluorescence by Z-LYTE assay.
Data set [3] addresses Cyclin-dependent kinase 1/cyclin B1 (Homo sapiens, UniProt P06493). Nature of the data set: Inhibition of human CDK1/cyclinB. The data set is classed as protein-complex assay.
The target of data set [4] is CDK7/Cyclin H/MNAT1 (Homo sapiens, UniProt P50613). In words: Inhibition of human CDK7/cyclinH/MAT1. In kind it is protein-complex assay.
Data set [5] concerns the target Protein-tyrosine kinase 2-beta (Homo sapiens, UniProt Q14289). In words: Inhibition of Pyk2 (unknown origin).
Data set [6] concerns the target Glycogen synthase kinase-3 beta (Homo sapiens, UniProt P49841). Nature of the data set: Inhibition of human GSK3beta.
Data set [7] relates to HT-29. In words: Antiproliferative activity against human HT-29 cells cultured as 2D-adherent monolayer assessed as reduction in cell viability by Celltiter-Glo assay. The data set is classed as functional, cell-based.
Data set [8] deals with MDA-MB-231. In words: Antiproliferative activity against human MDA-MB-231 cells cultured as 3D-spheroids assessed as reduction in cell viability by Celltiter-Glo assay. In kind it is functional, cell-based. On the technique in general: Cellular ATP, detected with luciferase, serves as a proxy for viable cell number.
In data set [9] the test system is MDA-MB-231. In words: Antiproliferative activity against human MDA-MB-231 cells cultured as 2D-adherent monolayer assessed as reduction in cell viability by Celltiter-Glo assay. In kind it is functional, cell-based.
In data set [10] the target is Focal adhesion kinase 1 (Mus musculus) (UniProt P34152). Nature of the data set: Inhibition of FAK in CDH1-/- RHOAY42C/+ mouse gastric cancer organoid model assessed as […] phosphorylation at 0.1 to 20 uM incubated for 24 hrs by immunoblot analysis. In kind it is tissue-based. Particulars: Stomach, dose 0.1-20 µM. (In general: A western blot detects proteins with antibodies after separation by electrophoresis.)

Data set [11] can be described thus: Apparent permeability of the compound across apical to basolateral side in human Caco-2 cells. In kind it is ADME, cell-based. For orientation: Passage across Caco-2 layers is used to estimate intestinal permeability.
Data set [12] relates to HT-29. In words: Antiproliferative activity against human HT-29 cells cultured as 3D-spheroids assessed as reduction in cell viability by Celltiter-Glo assay. In kind it is functional, cell-based.
The nature of data set [13]: Volume of distribution at steady-state in C57BI/6 male mouse at 2 mg/kg, iv. In kind it is ADME, organism-based. The conditions noted are these: C57BL/6, mouse, in vivo, read-out: Vdss.
In data set [14] the test system is MDA-MB-231. In words: Inhibition of cell migration in human MDA-MB-231 cells incubated for 24 hrs by microscopy method. In kind it is functional, cell-based.
Data set [15] can be described thus: Cmax in C57BI/6 male mouse at 10 mg/kg, po. In kind it is ADME, organism-based. The conditions noted are these: C57BL/6, mouse, in vivo. Also on record: route oral, dose 10 mg/kg.
The nature of data set [16]: Tmax in C57BI/6 male mouse at 10 mg/kg, po. The data set is classed as ADME, organism-based. The conditions noted are these: C57BL/6, mouse, in vivo.
A short description of data set [17]: Oral bioavailability in C57BI/6 male mouse at 10 mg/kg. In kind it is ADME, organism-based. The conditions noted are these: C57BL/6, mouse, in vivo.
Data set [18] is described as follows: Half life in C57BI/6 male mouse at 2 mg/kg, iv. The data set is classed as ADME, organism-based. Particulars: C57BL/6, mouse, in vivo.
Data set [19] has as its target Serine/threonine-protein kinase PLK1 (Homo sapiens) (UniProt P53350). Nature of the data set: Inhibition of PLK1 (unknown origin) assessed as cell cycle disruption.
For data set [20], the species on record is Homo sapiens. Nature of the data set: Antiproliferative activity against human gastric organoid assessed as reduction in cell viability by Celltiter-Glo assay. The data set is classed as functional, tissue-based. The conditions noted are these: Stomach.
Data set [21] addresses Focal adhesion kinase 1 (Mus musculus) (UniProt P34152). Nature of the data set: Inhibition of FAK in mouse gastric organoid by Immunoblotting.
The nature of data set [22]: AUC(infinity) in C57BI/6 male mouse at 10 mg/kg, po. In kind it is ADME, organism-based. On the set-up: route oral, time infinity, dose 10 mg/kg. Particulars: C57BL/6, mouse, in vivo.
A short description of data set [23]: Clearance in C57BI/6 male mouse at 2 mg/kg, iv. The data set is classed as ADME, organism-based. The conditions noted are these: C57BL/6, mouse, in vivo.
The target in data set [24] is Focal adhesion kinase 1 (Mus musculus) (UniProt P34152). In words: Inhibition of FAK in CDH1-/- RHOAY42C/+ mouse gastric cancer organoid model assessed as pFAY Y397 phosphorylation at 5 uM incubated for 24 hrs by immunoblot analysis. The data set is classed as tissue-based. The conditions noted are these: Stomach.
Data set [25] shares this target. In words: Inhibition of FAK in CDH1-/- RHOAY42C/+ mouse gastric cancer organoid model assessed as nonphosphorylated YAP at 0.1 to 20 uM incubated for 24 hrs by immunoblot analysis. Particulars: Stomach, dose 0.1-20 µM. The data set is classed as tissue-based.
Data set [26] has the same target. Nature of the data set: Inhibition of FAK in CDH1-/- RHOAY42C/+ mouse gastric cancer organoid model assessed as total YAP/TAZ level at 5 uM incubated for 24 hrs by immunoblot analysis. In kind it is tissue-based. The conditions noted are these: Stomach.
For data set [27] the target is unchanged. Nature of the data set: Inhibition of FAK in CDH1-/- RHOAY42C/+ mouse gastric cancer organoid model assessed as […] phosphorylation at 5 uM incubated for 24 hrs by immunoblot analysis. The data set is classed as tissue-based. Particulars: Stomach.
Data set [28] is filed under the species Mus musculus. Nature of the data set: Antiproliferative activity against CDH1-/-RHOAY42C/+ mouse diffuse gastric cancer organoid model assessed as reduction in cell viability at 5 uM. The conditions noted are these: Stomach. The data set is classed as functional, tissue-based.
Data set [29] can be described thus: Efflux ratio of apparent permeability in human Caco-2 cells. The data set is classed as ADME, cell-based.

Focal adhesion kinase 1 (Mus musculus), sequence (P34152 whole entry): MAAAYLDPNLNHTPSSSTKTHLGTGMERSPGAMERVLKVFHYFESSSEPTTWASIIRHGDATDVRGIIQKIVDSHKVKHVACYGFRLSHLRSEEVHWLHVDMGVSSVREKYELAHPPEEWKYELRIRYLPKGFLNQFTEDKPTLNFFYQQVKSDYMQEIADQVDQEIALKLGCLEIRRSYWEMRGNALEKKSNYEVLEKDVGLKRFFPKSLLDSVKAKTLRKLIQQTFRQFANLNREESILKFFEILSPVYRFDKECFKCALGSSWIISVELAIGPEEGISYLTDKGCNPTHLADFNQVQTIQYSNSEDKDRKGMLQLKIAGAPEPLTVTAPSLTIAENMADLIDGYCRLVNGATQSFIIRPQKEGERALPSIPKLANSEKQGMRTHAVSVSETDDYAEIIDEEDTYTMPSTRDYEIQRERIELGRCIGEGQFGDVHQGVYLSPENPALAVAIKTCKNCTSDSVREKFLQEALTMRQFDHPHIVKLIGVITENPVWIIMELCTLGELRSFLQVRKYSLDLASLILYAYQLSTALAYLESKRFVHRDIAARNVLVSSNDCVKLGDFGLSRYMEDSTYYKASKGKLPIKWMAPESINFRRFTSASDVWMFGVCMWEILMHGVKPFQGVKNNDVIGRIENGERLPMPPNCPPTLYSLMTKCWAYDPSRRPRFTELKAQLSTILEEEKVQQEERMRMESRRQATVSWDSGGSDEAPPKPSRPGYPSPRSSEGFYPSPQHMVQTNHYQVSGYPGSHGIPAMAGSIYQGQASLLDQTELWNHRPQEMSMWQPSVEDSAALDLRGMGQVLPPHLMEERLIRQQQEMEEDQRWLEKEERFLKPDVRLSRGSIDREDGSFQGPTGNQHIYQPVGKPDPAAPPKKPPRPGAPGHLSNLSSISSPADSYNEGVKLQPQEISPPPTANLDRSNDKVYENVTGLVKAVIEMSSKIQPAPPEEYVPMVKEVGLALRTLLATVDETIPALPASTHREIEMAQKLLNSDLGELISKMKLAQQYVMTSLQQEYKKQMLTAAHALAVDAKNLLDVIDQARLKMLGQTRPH
Focal adhesion kinase 1, sequence (Q05397 whole entry): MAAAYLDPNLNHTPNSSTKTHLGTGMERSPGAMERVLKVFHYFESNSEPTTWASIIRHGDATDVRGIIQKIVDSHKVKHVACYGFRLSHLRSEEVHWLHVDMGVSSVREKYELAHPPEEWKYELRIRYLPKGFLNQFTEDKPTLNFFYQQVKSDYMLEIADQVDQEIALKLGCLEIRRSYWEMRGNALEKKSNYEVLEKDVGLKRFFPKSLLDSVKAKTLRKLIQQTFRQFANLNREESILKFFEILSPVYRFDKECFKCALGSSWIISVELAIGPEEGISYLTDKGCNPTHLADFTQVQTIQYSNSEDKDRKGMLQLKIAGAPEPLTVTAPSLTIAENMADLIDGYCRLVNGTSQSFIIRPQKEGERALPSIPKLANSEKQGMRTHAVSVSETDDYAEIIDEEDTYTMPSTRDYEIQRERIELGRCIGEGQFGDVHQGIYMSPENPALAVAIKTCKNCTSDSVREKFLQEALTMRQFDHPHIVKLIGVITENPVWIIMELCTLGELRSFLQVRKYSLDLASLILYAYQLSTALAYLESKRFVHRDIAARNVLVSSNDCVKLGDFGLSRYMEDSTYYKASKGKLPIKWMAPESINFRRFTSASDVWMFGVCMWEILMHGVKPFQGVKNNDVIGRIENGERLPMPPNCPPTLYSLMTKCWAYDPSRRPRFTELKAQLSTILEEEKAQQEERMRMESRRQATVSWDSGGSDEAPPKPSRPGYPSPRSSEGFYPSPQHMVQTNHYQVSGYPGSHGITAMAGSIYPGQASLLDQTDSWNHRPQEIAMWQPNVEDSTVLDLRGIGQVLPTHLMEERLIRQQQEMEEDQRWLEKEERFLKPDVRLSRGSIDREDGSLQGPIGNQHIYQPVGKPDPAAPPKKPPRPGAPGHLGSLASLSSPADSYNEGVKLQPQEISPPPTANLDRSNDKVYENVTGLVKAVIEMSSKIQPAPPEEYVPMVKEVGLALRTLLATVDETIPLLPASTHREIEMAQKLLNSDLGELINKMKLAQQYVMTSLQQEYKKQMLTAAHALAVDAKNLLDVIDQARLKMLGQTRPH
CDK7/Cyclin H/MNAT1, sequence (P51946 whole entry): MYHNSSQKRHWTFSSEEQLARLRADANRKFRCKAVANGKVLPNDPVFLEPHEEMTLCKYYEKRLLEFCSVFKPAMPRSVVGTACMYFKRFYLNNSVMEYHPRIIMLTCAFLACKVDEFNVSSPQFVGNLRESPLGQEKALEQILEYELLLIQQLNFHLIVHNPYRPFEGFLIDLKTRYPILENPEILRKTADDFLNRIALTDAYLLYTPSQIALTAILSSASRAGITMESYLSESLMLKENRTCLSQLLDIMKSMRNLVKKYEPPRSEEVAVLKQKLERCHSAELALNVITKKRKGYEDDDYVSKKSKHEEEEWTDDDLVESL
CDK7/Cyclin H/MNAT1, sequence (P50613 whole entry): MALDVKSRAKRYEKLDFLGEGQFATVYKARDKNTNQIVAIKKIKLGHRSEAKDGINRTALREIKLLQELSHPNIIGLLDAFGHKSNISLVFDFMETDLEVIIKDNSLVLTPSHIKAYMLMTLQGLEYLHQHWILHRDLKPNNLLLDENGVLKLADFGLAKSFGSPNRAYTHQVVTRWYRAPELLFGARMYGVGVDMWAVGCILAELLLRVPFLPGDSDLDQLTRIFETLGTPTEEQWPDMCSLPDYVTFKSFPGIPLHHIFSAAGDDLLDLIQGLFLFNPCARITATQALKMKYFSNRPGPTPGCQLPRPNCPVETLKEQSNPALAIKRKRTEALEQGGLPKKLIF
CDK7/Cyclin H/MNAT1, sequence (P51948 whole entry, further chain): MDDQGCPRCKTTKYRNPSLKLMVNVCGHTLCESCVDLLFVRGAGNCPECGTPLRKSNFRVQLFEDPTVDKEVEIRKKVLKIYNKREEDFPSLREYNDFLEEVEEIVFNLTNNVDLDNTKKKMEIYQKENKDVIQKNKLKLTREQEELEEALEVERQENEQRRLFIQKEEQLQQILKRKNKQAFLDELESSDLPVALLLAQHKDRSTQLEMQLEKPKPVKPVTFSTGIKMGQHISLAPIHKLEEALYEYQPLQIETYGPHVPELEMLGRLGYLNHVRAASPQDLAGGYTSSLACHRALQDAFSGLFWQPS
Serine/threonine-protein kinase PLK1 (Homo sapiens), sequence (P53350 whole entry): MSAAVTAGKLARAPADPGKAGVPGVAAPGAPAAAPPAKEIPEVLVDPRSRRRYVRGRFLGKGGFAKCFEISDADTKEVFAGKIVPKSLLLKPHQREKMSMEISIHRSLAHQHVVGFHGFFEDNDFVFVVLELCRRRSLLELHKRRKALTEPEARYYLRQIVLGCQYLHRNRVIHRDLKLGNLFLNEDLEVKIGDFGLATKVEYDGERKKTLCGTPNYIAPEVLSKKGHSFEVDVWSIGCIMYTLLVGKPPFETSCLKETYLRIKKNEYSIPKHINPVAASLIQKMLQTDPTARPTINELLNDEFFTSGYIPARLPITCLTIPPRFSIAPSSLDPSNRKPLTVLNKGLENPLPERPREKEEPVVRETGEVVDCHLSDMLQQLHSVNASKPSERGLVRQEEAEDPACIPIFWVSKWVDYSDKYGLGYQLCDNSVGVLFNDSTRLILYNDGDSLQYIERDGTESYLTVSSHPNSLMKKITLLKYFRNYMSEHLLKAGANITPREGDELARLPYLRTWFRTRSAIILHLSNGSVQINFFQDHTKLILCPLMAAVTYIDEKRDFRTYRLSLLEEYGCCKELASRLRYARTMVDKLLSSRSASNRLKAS
Protein-tyrosine kinase 2-beta, sequence (Q14289 whole entry): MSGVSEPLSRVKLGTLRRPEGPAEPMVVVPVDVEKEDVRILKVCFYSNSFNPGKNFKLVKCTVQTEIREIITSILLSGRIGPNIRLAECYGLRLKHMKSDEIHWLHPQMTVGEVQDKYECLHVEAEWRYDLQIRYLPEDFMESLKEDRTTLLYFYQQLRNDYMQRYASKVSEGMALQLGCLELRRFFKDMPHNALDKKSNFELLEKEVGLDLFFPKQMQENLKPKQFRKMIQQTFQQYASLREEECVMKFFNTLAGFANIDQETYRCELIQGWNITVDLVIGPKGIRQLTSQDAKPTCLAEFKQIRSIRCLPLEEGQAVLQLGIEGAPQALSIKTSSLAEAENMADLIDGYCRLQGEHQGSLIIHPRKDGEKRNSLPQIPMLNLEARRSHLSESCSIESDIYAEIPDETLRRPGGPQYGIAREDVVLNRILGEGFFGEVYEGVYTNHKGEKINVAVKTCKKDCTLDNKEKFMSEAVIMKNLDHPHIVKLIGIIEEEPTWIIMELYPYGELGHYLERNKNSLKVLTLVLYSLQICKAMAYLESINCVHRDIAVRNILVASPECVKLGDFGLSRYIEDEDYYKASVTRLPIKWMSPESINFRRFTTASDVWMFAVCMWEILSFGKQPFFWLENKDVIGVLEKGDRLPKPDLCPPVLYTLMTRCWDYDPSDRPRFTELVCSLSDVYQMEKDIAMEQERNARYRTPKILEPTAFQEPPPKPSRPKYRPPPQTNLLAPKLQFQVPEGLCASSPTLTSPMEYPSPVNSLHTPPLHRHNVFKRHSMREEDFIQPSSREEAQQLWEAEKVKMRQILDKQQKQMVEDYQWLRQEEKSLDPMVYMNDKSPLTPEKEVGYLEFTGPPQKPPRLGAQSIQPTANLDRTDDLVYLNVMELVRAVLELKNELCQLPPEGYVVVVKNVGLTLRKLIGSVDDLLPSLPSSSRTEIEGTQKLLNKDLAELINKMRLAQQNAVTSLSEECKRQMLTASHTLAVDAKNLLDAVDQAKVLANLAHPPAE

On to `CCOc1cc(N2CCN(C)CC2)ccc1Nc1ncc2c(n1)N(C)c1sc(C)nc1C(=O)N2C`, for which, in [1], the half-maximal inhibitory concentration (IC50) (in general, the concentration that gives 50% inhibition) is 6.1 µM.
For `COc1cc(N2CCN(C)CC2)ccc1Nc1ncc2c(n1)N(C)c1cn(C)nc1C(=O)N2`, in data set [2], 0.123 µM corresponded to half-maximal inhibition (IC50).
In the case of `COc1cc2c(cc1Nc1ncc3c(n1)N(C)c1sc(C)nc1C(=O)N3C)CN(C)CC2`, the IC50 in data set [1] was > 10 µM.
Turning to `COc1cc(N2CCN(CCO)CC2)ccc1Nc1ncc2c(n1)N(C)c1sc(C)nc1C(=O)N2C`, the IC50 in data set [1] was > 10 µM.
For `CS(=O)(=O)c1cccc(CNc2nc(Nc3ccc4c(c3)CCC(=O)N4)ncc2C(F)(F)F)c1`, the IC50 in data set [3], in data set [4], in data set [5] and in data set [6] was < 1 µM each time. The result in [7] was Active.
`Cc1nc2c(s1)N(C)c1nc(Nc3ccc(N4CCN(C)CC4)cc3OCCO)ncc1N(C)C2=O` came in with an IC50 in data set [2] of 0.0465 µM.
`COc1cc(N2CCC(N3CCN(C)CC3)CC2)ccc1Nc1ncc2c(n1)N(C)c1oc(C)nc1C(=O)N2C`: the values for the IC50 in data set [1] and in [2] were > 10 µM and 0.525 µM, respectively.
In the case of `COc1cc(N2CCN(C)CC2)c(C)cc1Nc1ncc2c(n1)N(C)c1sc(C)nc1C(=O)N2C`, the IC50 in data set [1] was determined as 7.7 µM.
For the compound `COc1cc(N2CCN(C)CC2)ccc1Nc1ncc2c(n1)N(C)c1sc(C)nc1C(=O)N2C`, the outcome in data set [8] was Active. Also, in data set [1], the IC50 stood at 2.3 µM. In addition, the result in [9] was inactive.
As to `CNC(=O)c1ccc(Nc2ncc3c(n2)N(C)c2sc(C)nc2C(=O)N3C)c(OC)c1`, the IC50 in [1] is > 10 µM.
Take `COc1cc(N2CCC(N3CCN(C)CC3)CC2)ccc1Nc1ncc2c(n1)N(C)c1sc(C)nc1C(=O)N2C`: the inhibition entry in data set [10], in [14] and in data set [21] was “Active” throughout. For the same compound, the Papp A→B (commonly how fast a substance crosses the layer from the apical side) in data set [11] was determined as 5.8 ×10⁻⁶ cm/s. Further, in data set [8], the result was Active. Moreover, the outcome in [12], in data set [9] and in data set [7] was inactive. In addition, the Vd in data set [13] was found to be 4.07 L/kg. Further, the highest level in data set [15] (Cmax) was 420 nM. The Tmax (as a rule, the time at which the peak concentration occurs) in data set [16] was 4 h. Moreover, the bioavailability (usually dose-corrected exposure relative to a reference, in per cent) in data set [17] is 18.3%. Also, the half-life (in general, the time in which the quantity being followed falls by half) in data set [18] is 5.29 h. The inhibition entry in data set [19] is “inactive”. Further, the Activity entry in data set [20] is “Dose-dependent effect”. For the same compound, the AUC(0-inf) (commonly the area under the concentration-time curve extrapolated to infinity) in data set [22] is 1820 ng·h/mL. The clearance – broadly, the volume of plasma or blood freed of the substance per unit of time – in [23] came to 18.5 mL/min/kg.
On to `COc1cc(C(=O)N2CCC(N3CCN(C)CC3)CC2)ccc1Nc1ncc2c(n1)N(C)c1sc(C)nc1C(=O)N2C`, for which the half-maximal inhibitory concentration (IC50) in data set [1] is > 10 µM.
For the compound `COc1cc(N2CCN(C)CC2)ccc1Nc1ncc2c(n1)N(C)c1ncsc1C(=O)N2`, the concentration for half-maximal inhibition (IC50) in data set [2] is > 10 µM.
With `CNC(=O)c1ccccc1Nc1cc(Nc2ccc(N3CCOCC3)cc2OC)ncc1C(F)(F)F`, the result in [12] and in data set [7] was Active.
As to `COc1cc(N2CCNCC2)ccc1Nc1ncc2c(n1)N(C)c1sc(C)nc1C(=O)N2C`, the outcome in [8] was Active. The IC50 in [1] came to 2.5 µM. Also, in [9], the outcome was inactive.
Take `COc1cc(N2CCC(N3CCN(C)CC3)CC2)ccc1Nc1ncc2c(n1)N(C)c1sc(-c3ccccc3)nc1C(=O)N2C`: in [2], the IC50 is > 10 µM.
On to `COc1cc(N2CCN(C)CC2)ccc1Nc1ncc2c(n1)N(C)c1ccccc1C(=O)N2`, for which the IC50 in data set [2] is > 10 µM.
Regarding `CCN1c2nc(Nc3ccc(N4CCC(N5CCN(C)CC5)CC4)cc3OC)ncc2N(C)C(=O)c2nc(C)sc21`, in data set [1], the IC50 was > 10 µM.
With `CNC(=O)c1ccc(Nc2ncc(C(F)(F)F)c(NCc3nccnc3N(C)S(C)(=O)=O)n2)cc1`, the inhibition entry in data set [24], in [25], in data set [26] and in [27] was “Active” in each case. For the same compound, the outcome in data set [28] and in [7] was Active.
As for `COc1cc(C2CCN(C)CC2)ccc1Nc1ncc2c(n1)N(C)c1sc(C)nc1C(=O)N2C`, the result in data set [8] was Active. Moreover, the IC50 in data set [1] was 3.7 µM. For the same compound, the outcome in [9] was inactive.
With `COc1cc(N2CCN(S(C)(=O)=O)CC2)ccc1Nc1ncc2c(n1)N(C)c1sc(C)nc1C(=O)N2C`, the IC50 in data set [1] was > 10 µM.
On to `CNC(=O)c1ccc(Nc2ncc3c(n2)N(C)c2sc(C)nc2C(=O)N3C)cc1`, for which the IC50 in [1] was found to be 5.9 µM.
Same read-out and setting: the result for `Cc1nc2c(s1)N(C)c1nc(Nc3ccc4c(c3)CCC(=O)N4)ncc1N(C)C2=O` reads > 10 µM.
Regarding `CCN1C(=O)c2nc(C)sc2N(C)c2nc(Nc3ccc(N4CCC(N5CCN(C)CC5)CC4)cc3OC)ncc21`, the Papp A→B in data set [11] was determined as 8.3 ×10⁻⁶ cm/s. In addition, in data set [8], the result was Active. Moreover, the efflux ratio (commonly the permeability from basolateral to apical divided by that in the opposite direction, in the common usage) in data set [29] was 2.2. The IC50 in data set [1] is 0.93 µM. The outcome in data set [9] was inactive.

These data come from ChEMBL document CHEMBL4673383, “Discovery of a Pyrimidothiazolodiazepinone as a Potent and Selective Focal Adhesion Kinase (FAK) Inhibitor” (ACS Med Chem Lett, 2021).
